From US20260042827A1, “ANTI-WT1 ANTIGEN-BINDING PROTEINS AND USES THEREOF” (UNIVERSITY HEALTH NETWORK, priority 2022, published 2026) come the findings set out here.

Assay [1] deals with T1, DP2 (Homo sapiens, UniProt P04440+P20036, A65V/A84D/A85E/K98E).
T1 sequence (P20036 29-260): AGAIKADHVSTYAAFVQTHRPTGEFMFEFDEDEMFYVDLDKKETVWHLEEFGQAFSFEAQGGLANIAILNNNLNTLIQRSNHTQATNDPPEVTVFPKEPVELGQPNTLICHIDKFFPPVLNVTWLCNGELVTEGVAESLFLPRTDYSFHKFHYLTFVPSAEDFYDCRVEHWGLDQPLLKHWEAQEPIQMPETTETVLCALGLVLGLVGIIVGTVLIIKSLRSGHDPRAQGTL
T1 sequence (P04440 30-258 A65V/A84D/A85E/K98E): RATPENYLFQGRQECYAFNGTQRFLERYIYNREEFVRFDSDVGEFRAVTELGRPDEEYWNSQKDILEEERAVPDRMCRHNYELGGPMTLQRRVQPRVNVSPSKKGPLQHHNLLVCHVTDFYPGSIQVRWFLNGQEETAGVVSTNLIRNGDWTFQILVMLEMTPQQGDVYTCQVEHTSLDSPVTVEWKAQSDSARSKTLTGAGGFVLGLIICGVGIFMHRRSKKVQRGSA
The experiment in a line: T2 cell-based competitive binding assay. To be noted: T2 cells transduced with DP2; reference peptide Oxy271-287.

Assay [2] deals with T2, DP4 (Homo sapiens, UniProt P04440+P20036).
T2 construct: expressed in transfected cells; host or cells: T2 cells, retrovirally transduced (pMX vector)
T2 sequence (P20036 29-260): T1 sequence (P20036 29-260)
T2 sequence (P04440 30-258): T1 sequence (P04440 30-258 A65V/A84D/A85E/K98E) with V36A, D55A, E56A, E69K
The experiment in a line: T2 cell-based competitive binding assay. The settings on record: T2 cells transduced with DP4; reference peptide Oxy271-287.

Substitutions are numbered along the chain they refer to.

Take “CMTWNQMNL [WT1235-243, known HLA-A2 restricted peptide, negative control, reference compound]”: the “IC50 value, displacement of reference peptide” value in assay [1] and in assay [2] was “failed to displace reference peptide at any tested concentration” each time.
Turning to PGCNKRYFKLSHLQMHSRKHT [WT1328-348], the “IC50 value, displacement of reference peptide” value in assay [1] and in assay [2] was “comparable to TT947-967” each time.
